Experimental data from PMC6165432 (International Journal of Molecular Sciences, 2018).
Like-named read-outs stand apart in the source and are kept apart here. Each block holds one compound with its values, some of them ahead of it.

Key:
[1] = target: T1, mouse AhR (mAhR) (Mus musculus, UniProt P30561); assay: AhR-responsive luciferase reporter gene assay in stably transfected mouse H1L6.1c3 hepatoma cells; type: cell-based
T1 sequence (P30561 10-805): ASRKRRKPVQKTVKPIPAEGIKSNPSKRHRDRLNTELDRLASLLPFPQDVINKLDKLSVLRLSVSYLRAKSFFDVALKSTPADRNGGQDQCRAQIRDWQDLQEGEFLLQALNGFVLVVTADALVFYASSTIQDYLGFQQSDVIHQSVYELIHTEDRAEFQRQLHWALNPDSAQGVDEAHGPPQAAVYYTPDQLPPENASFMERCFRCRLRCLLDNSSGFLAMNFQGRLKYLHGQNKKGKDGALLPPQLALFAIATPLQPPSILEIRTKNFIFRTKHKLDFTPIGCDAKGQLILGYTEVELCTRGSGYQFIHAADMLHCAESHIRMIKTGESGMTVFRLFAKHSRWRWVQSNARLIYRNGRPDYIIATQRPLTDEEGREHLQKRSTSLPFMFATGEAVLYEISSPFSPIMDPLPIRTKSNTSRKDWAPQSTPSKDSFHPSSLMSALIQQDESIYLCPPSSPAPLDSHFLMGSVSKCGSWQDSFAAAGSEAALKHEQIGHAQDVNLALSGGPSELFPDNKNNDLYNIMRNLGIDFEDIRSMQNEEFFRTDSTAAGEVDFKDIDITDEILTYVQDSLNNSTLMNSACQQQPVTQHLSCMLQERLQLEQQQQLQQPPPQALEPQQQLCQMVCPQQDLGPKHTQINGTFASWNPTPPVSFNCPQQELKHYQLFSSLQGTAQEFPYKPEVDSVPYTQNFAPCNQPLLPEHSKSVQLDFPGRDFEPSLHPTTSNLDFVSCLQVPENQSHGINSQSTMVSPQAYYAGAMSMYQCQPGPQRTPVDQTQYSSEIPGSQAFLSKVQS
Experimental: (§2) AhR-dependent gene transcription was determined in (A) human HG2L6.1c.1 and (B) mouse H1L6.1c.3 hepatoma cell lines that contain a stably transfected AhR-responsive luciferase reporter gene. […] Luciferase activity (Relative Light Units (RLUs)) was normalized to the maximal induction observed with TCDD in each cell line. Values represent the mean ± SD of nine independent analyses.
(§3) Recombinant mouse (H1L6.1c3) and human (HG2L6.1c1) hepatoma cells containing a stably integrated AhR-responsive luciferase reporter gene plasmid (pGudLuc6.1) were plated (750,000 cells/well) in 96-well plates and incubated at 37 °C for 24 h prior to chemical treatment. Cells were incubated with DMSO (1% (v/v)) or the indicated concentration of test chemical in DMSO for 4 h, followed by visual inspection of the cells for toxicity, washing of the cells with phosphate-buffered saline (PBS), addition of 50 µL of passive lysis buffer (Promega) and lysis of cells for 20 min at room temperature with shaking [50]. Luciferase activity in each well was measured (integrating luminescence over 10 s with a 10 s delay) in an Orion microplate luminometer (Berthold Detection Systems, Bad Wildbad, Germany) following automatic injection of Promega stabilized luciferase reagent.
(§4) Analysis of statistical significance of differences between experimental values was conducted using Two-Way ANOVA and EC50s and IC50s were calculated using nonlinear regression (three parameter) analysis in GraphPad Prism v.7 (La Jolla, CA, USA).

[2] = target: T2, human AhR (hAhR) (Homo sapiens, UniProt P35869); assay: AhR-responsive luciferase reporter gene assay in stably transfected human HG2L6.1c1 hepatoma cells
T2 sequence (P35869 11-848): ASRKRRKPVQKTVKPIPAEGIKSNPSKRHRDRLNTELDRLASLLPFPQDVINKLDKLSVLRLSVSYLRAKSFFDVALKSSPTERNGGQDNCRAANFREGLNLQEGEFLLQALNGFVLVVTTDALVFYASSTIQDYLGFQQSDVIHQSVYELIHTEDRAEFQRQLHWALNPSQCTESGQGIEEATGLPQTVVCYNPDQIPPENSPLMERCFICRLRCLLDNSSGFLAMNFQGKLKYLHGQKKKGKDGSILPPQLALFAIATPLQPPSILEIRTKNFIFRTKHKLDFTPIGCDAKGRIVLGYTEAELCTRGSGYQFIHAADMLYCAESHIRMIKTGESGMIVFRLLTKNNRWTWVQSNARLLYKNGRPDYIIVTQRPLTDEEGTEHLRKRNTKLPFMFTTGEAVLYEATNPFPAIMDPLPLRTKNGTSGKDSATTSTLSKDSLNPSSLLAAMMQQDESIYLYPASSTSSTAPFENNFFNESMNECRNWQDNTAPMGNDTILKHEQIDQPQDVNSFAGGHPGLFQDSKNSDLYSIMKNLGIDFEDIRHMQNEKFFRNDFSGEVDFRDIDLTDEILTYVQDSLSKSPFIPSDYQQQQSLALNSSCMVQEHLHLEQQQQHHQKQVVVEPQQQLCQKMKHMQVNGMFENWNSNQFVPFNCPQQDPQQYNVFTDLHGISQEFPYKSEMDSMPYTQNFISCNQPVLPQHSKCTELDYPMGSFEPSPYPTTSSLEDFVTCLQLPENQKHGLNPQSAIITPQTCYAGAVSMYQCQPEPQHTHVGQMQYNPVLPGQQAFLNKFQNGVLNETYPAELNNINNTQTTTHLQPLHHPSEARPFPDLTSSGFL
Experimental: as §2, §3, §4

[3] = target: T3, mutant mAhR Q299R (Mus musculus, UniProt P30561, M324I/Q299R); assay: AhR DNA binding (gel retardation) assay, Q299R mAhR; type: biochemical
T3 construct: made in house; host or cells: in vitro transcription/translation, rabbit reticulocyte lysate
Experimental: (§5) An aliquot of each incubation was mixed with [^32P]-labeled double-stranded oligonucleotide containing the AhR-ARNT DRE3 DNA binding site (a dioxin responsive element from the upstream region of the murine Cyp1a1 gene [9] and protein-DNA complexes resolved by gel retardation analysis as previously described [48, 49]. Gels were visualized using a FLA9000 Fujifilm Imager and protein-DNA complexes quantitated with Fujifilm MultiGauge software (FujiFilm Corporation, Valhalla, NY, USA).
as §4

[4] = target: T4, mutant mAhR L300I (Mus musculus, UniProt P30561, L300I/M324I); assay: AhR DNA binding (gel retardation) assay, L300I mAhR; type: biochemical
T4 construct: made in house; host or cells: in vitro transcription/translation, rabbit reticulocyte lysate
Experimental: as §5, §4

[5] = target: T5, mutant mAhR I301V (Mus musculus, UniProt P30561, I301V/M324I); assay: AhR DNA binding (gel retardation) assay, I301V mAhR; type: biochemical
T5 construct: made in house; host or cells: in vitro transcription/translation, rabbit reticulocyte lysate
Experimental: as §5, §4

[6] = target: T6, mutant mAhR V307A (Mus musculus, UniProt P30561, M324I/V307A); assay: AhR DNA binding (gel retardation) assay, V307A mAhR; type: biochemical
T6 construct: made in house; host or cells: in vitro transcription/translation, rabbit reticulocyte lysate
Experimental: as §5, §4

[7] = target: T7, mutant mAhR I324M (Mus musculus, UniProt P30561); assay: AhR DNA binding (gel retardation) assay, I324M mAhR; type: biochemical
T7 construct: made in house; host or cells: in vitro transcription/translation, rabbit reticulocyte lysate
Experimental: as §5, §4

[8] = target: T8, mutant mAhR H326Y (Mus musculus, UniProt P30561, H326Y/M324I); assay: AhR DNA binding (gel retardation) assay, H326Y mAhR; type: biochemical
T8 construct: made in house; host or cells: in vitro transcription/translation, rabbit reticulocyte lysate
Experimental: as §5, §4

[9] = target: T9, mutant mAhR T343I (Mus musculus, UniProt P30561, M324I/T343I); assay: AhR DNA binding (gel retardation) assay, T343I mAhR; type: biochemical
T9 construct: made in house; host or cells: in vitro transcription/translation, rabbit reticulocyte lysate
Experimental: as §5, §4

[10] = target: T10, mutant mAhR H351N (Mus musculus, UniProt P30561, H351N/M324I); assay: AhR DNA binding (gel retardation) assay, H351N mAhR; type: biochemical
T10 construct: made in house; host or cells: in vitro transcription/translation, rabbit reticulocyte lysate
Experimental: as §5, §4
(§6) In vitro synthesized mutant mAhRs were incubated in the presence of
(§7) 45 nM-10,000 nM) for 2 h and DNA binding analyzed by the gel retardation assay as described in
(§8) 46 Materials and Methods. Values represent the mean ± SD of nine individual replicate analyses and
(§9) 47 EC50 values determined by nonlinear regression (three-parameter) analysis and graphical depictions

[11] = target: T11, mutant mAhR S352N (Mus musculus, UniProt P30561, M324I/S352N); assay: AhR DNA binding (gel retardation) assay, S352N mAhR; type: biochemical
T11 construct: made in house; host or cells: in vitro transcription/translation, rabbit reticulocyte lysate
Experimental: as §5, §4, §6, §7, §8, §9

[12] = target: T12, mutant mAhR R355T (Mus musculus, UniProt P30561, M324I/R355T); assay: AhR DNA binding (gel retardation) assay, R355T mAhR; type: biochemical
T12 construct: made in house; host or cells: in vitro transcription/translation, rabbit reticulocyte lysate
Experimental: as §5, §4, §6, §7, §8, §9

[13] = target: T13, mutant mAhR A375V (Mus musculus, UniProt P30561, A375V/M324I); assay: biochemical
T13 construct: made in house; host or cells: in vitro transcription/translation, rabbit reticulocyte lysate
Experimental: as §5, §4

[14] = target: T14, mutant hAhR T355A (Homo sapiens, UniProt P35869, T355A); assay: AhR DNA binding (gel retardation) assay, T355A hAhR; type: biochemical
T14 construct: made in house; host or cells: in vitro transcription/translation, rabbit reticulocyte lysate
Experimental: as §5, §4, §6, §7, §8, §9

[15] = target: T15, mutant hAhR V381A (Homo sapiens, UniProt P35869, V381A); assay: AhR DNA binding (gel retardation) assay, V381A hAhR; type: biochemical
T15 construct: made in house; host or cells: in vitro transcription/translation, rabbit reticulocyte lysate
Experimental: as §5, §4, §6, §7, §8, §9

[16] = target: T16, mutant hAhR Y332H (Homo sapiens, UniProt P35869, Y332H); assay: AhR DNA binding (gel retardation) assay, Y332H hAhR; type: biochemical
T16 construct: made in house; host or cells: in vitro transcription/translation, rabbit reticulocyte lysate
Experimental: as §5, §4, §6, §7, §8, §9

[17] = system: T17, wild-type mAhR; assay: Transient transfection luciferase reporter assay in COS-1 cells, wild-type mAhR; type: cell-based, mouse; settings: COS-1 cells cotransfected with wild-type mAhR; TCDD 10 nM, IR 1 µM, 18–20 h
T17 construct: contains a full-length mAhR cDNA in which the mouse PASB LBD was replaced; expressed in transfected cells; host or cells: COS-1
Experimental: (§10) Cells were lysed, and lysates were analyzed for firefly luciferase activity. […] Luciferase activity (relative light units; RLU) was measured and corrected for background (DMSO) and normalized to mAhR TCDD levels. Values represent the mean ± SD of nine individual replicate analyses.
(§11) COS-1 cells were plated at a density of 75,000 cells/well and allowed to attach overnight in a 24-well plate. Cells were transiently transfected (per well) with the following amounts per well: 2 µL Lipofectamine 2000 (Invitrogen, Carlsbad, CA, USA), 20 ng wild-type (mβAhR/pcDNA3) or mutant AhR expression plasmids (in pcDNA3.1), 20 ng of mβARNT/pcDNA3 or pcDNA3.1(+) and 200 ng pGudLuc6.1 [17].

[18] = system: T18, mutant A349T mAhR; assay: Transient transfection luciferase reporter assay in COS-1 cells, A349T mAhR; type: cell-based, mouse; settings: COS-1 cells cotransfected with A349T mAhR; TCDD 10 nM, IR 1 µM, 18–20 h
T18 construct: contains a full-length mAhR cDNA in which the mouse PASB LBD was replaced; expressed in transfected cells; host or cells: COS-1
Experimental: as §10, §11

[19] = system: mAhR A375V; settings: A375V versus high-affinity mAhR ref 27, 28; cited from earlier work
[20] = system: mAhR A375V; settings: A375V versus high-affinity mAhR ref 27, 28; cited from earlier work; remark: listed apart in the source
[21] = target: T19, mutant mAhR A349T (Mus musculus, UniProt P30561, A349T/M324I); assay: biochemical; set-up: made in house; host or cells: in vitro transcription/translation, rabbit reticulocyte lysate
Experimental: as §5, §4

[22] = target: T20, mAhR (Mus musculus, UniProt P30561, M324I); assay: biochemical; set-up: made in house; host or cells: in vitro transcription/translation, rabbit reticulocyte lysate (Promega TNT)
Experimental: (§12) (A) The amount of inducible protein-DNA complex at each chemical concentration was quantitated and values normalized to the amount of complex formed with a maximal activating concentration of TCDD (20 nM). […] Values represent the mean ± SD of nine individual replicate analyses.
as §5, §4

[23] = target: hAhR (Homo sapiens, UniProt P35869); assay: biochemical; set-up: only occur within the full length hAhR and not in the mAhR-hAhRLBD chimera; made in house; host or cells: in vitro transcription/translation, rabbit reticulocyte lysate
Experimental: as §12, §5, §4

[24] = target: T20, mAhR; set-up: host or cells: rabbit reticulocyte lysate, coupled transcription/translation; settings: in vitro synthesized AhRs, specific binding
Experimental: (§1) [^3H]TCDD specific binding was determined by subtracting the amount of [^3H]TCDD bound to unprogrammed lysate (nonspecific binding) from the total amount of [^3H]TCDD binding to lysate containing in vitro expressed AhR.
Target sequence in this assay (P30561 10-805 M324I limits assumed): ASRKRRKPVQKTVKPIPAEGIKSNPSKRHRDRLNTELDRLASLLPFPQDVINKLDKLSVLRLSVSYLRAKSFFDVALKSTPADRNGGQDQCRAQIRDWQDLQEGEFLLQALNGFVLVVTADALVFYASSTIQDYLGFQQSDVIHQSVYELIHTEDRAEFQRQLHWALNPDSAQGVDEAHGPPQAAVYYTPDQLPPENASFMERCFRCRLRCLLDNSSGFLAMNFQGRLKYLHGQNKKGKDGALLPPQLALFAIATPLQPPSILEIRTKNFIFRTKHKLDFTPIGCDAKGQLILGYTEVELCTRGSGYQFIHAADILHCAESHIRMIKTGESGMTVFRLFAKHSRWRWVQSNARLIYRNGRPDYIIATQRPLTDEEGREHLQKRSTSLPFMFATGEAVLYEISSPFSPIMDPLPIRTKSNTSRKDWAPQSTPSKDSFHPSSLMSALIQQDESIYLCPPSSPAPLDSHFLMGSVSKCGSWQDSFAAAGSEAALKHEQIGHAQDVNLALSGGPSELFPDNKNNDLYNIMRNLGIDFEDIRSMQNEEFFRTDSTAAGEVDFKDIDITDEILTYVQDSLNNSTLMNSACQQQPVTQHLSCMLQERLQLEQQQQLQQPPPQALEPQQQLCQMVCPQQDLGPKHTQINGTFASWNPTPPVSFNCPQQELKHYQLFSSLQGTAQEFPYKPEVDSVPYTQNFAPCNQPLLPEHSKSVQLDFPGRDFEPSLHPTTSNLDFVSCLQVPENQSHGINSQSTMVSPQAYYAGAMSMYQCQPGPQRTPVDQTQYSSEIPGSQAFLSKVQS

[25] = target: T19, mutant mAhR A349T; set-up: host or cells: rabbit reticulocyte lysate, coupled transcription/translation; settings: specific binding
Experimental: as §1
Target sequence in this assay (P30561 10-805 M324I/A349T limits assumed): as the sequence (P30561 10-805 M324I limits assumed) above, with A340T counted along it

[26] = mouse H1L6.1c3 hepatoma cells, 4 h, mean ± SD of nine analyses, read-out: EC50 to stimulate luciferase reporter gene expression, Mouse

T5 sequence (P30561 10-805 I301V/M324I limits assumed): as the sequence (P30561 10-805 M324I limits assumed) above, with I292V counted along it
T5 sequence (P53762 whole entry partner): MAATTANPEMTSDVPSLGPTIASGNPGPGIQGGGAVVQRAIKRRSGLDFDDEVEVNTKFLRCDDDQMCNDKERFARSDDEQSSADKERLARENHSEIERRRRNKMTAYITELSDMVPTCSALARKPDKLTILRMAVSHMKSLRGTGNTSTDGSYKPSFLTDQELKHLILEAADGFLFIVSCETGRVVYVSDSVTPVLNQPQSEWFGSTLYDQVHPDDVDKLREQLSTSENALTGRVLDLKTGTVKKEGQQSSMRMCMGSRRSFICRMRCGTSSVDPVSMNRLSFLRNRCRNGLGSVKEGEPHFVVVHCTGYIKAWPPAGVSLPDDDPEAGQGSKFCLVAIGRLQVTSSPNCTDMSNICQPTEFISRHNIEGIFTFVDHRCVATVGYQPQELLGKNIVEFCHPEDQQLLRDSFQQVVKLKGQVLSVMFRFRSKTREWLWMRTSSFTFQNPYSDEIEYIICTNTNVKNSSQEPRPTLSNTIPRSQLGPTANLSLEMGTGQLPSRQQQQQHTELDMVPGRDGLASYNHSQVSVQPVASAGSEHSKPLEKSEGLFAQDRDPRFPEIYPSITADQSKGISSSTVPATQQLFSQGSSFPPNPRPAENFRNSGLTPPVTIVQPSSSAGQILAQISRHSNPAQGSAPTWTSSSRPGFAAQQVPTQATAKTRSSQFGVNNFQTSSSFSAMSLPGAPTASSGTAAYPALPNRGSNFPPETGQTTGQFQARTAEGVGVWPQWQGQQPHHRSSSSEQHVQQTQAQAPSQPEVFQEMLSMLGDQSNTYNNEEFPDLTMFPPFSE
T12 sequence (P30561 10-805 M324I/R355T limits assumed): as the sequence (P30561 10-805 M324I limits assumed) above, with R346T counted along it
T12 sequence (P53762 whole entry partner): as the sequence (P53762 whole entry partner) above
T10 sequence (P30561 10-805 M324I/H351N limits assumed): as the sequence (P30561 10-805 M324I limits assumed) above, with H342N counted along it
T10 sequence (P53762 whole entry partner): as the sequence (P53762 whole entry partner) above
T3 sequence (P30561 10-805 Q299R/M324I limits assumed): as the sequence (P30561 10-805 M324I limits assumed) above, with Q290R counted along it
T3 sequence (P53762 whole entry partner): as the sequence (P53762 whole entry partner) above
T6 sequence (P30561 10-805 V307A/M324I limits assumed): as the sequence (P30561 10-805 M324I limits assumed) above, with V298A counted along it
T6 sequence (P53762 whole entry partner): as the sequence (P53762 whole entry partner) above

EC50 at 4 h [1, 26]: 22.3 ± 3.53 nM
EC50 [2]: 184 ± 42.1 nM
Structure (SMILES): COC(=O)c1csc(C(=O)c2c[nH]c3ccccc23)n1 [ITE, 2-(1H-Indol-3-ylcarbonyl)-4-thiazolecarboxylic acid methyl ester]

Structure (SMILES): Clc1cc2c(cc1Cl)Oc1cc(Cl)c(Cl)cc1O2 [TCDD, 2,3,7,8-tetrachlorodibenzo-p-dioxin]
EC50 at 4 h ([1]; mouse): 0.027 ± 0.01 nM
EC50 [3]: 2.29 ± 0.12 nM
EC50 [4]: 1.42 ± 0.61 nM
EC50 [5]: 2.09 ± 0.01 nM
EC50 [6]: 4.25 ± 0.12 nM
EC50 [7]: 2.92 ± 0.14 nM
EC50 [8]: 0.62 ± 0.52 nM
EC50 [9]: 1.79 ± 0.12 nM
EC50 [10]: 0.73 ± 0.04 nM
EC50 [11]: 4.34 ± 0.26 nM
EC50 [12]: 0.94 ± 0.06 nM
EC50 [13]: 5.25 ± 0.56 nM
EC50 [14]: 2.32 ± 0.82 nM
EC50 [15]: 2.99 ± 0.65 nM
EC50 [16]: 0.59 ± 0.6 nM
induction of luciferase activity, TCDD versus IR [17]: comparable to IR
maximal induction compared with wild-type mAhR [18]: significantly repressed compared to wild-type mAhR
lower affinity of the mAhR after mutation A375V [19]: ~ 10 fold
lower activation potency of the mAhR after mutation A375V [20]: ~ 10 fold
EC50 [21]: 3.86 ± 1.06 nM
EC50 [2]: 0.26 ± 0.07 nM
EC50 [22]: 2.48 ± 0.54 nM
EC50 [23]: 2.46 ± 0.9 nM

Structure (SMILES): Clc1cc2oc3cc(Cl)c(Cl)cc3c2cc1Cl [TCDF, 2,3,7,8-tetrachlorodibenzofuran]
EC50 [1, 26]: 1.25 ± 0.65 nM
EC50 [2]: 4.1 ± 0.79 nM

Structure (SMILES): Clc1cc2c(cc1Cl)Oc1cc(Cl)c(Cl)cc1O2 [[^3H]TCDD]
more [3H]TCDD bound to wild-type mAhR than to the mAhR-hAhRLBD chimera [24]: ~ 10%
[3H]TCDD binding to A349T mutant mAhR compared with wild-type mAhR [25]: not significantly different from that of the wild-type mAhR
